Literature values in patent US20250195564A1, “IRON SUPPLEMENT COMPOSITIONS AND METHODS OF USE THEREOF” (ThermoLife International, LLC, priority 2021, published 2025).

Settings: iron supplementation; without supplementation mean 36±11 days

Structure (SMILES): O=S(=O)([O-])[O-].[Fe+2] [iron sulfate]
- time of hemoglobin recovery after blood donation: 32 days
